Results on three compounds are retold here after patent publication US7402424B2, “Spectroscopic pH measurement at high-temperature and/or high-pressure” (Schlumberger Technology Corporation, priority 2006, dated 2008).

Series [1] can be described thus: pKa of reagents (reagent properties used in the model of FIG. 2a). Format: physicochemical. Conditions: reagent property used in the model of FIG. 2a.
The nature of series [2]: Molar absorptivity ε of acid and base forms of reagents at 570 nm and 445 nm. Format: physicochemical. As to conditions: for ε at 445 nm (λ1), Acid / ε at 570 nm (λ2), Acid: acid form; for ε at 445 nm (λ1), Acid / ε at 445 nm (λ1), Base / ε at 570 nm (λ2), Base: in M-1·cm-1 (unit assumed); for ε at 445 nm (λ1), Base / ε at 570 nm (λ2), Base: base form (sodium salt of the reagent).

For orientation: pKa means the pH at which an ionisable group is half protonated.

Like-named read-outs stand apart in the source and are kept apart here.

In the case of `O=S1(=O)OC(c2ccc(O)cc2)(c2ccc(O)cc2)c2ccccc21` [Phenol Red], in series [1] (read-out: pKa), the pKa came to 7.79.
In turn, `O=S1(=O)OC(c2ccc(O)c(Cl)c2)(c2ccc(O)c(Cl)c2)c2ccccc21` [Chlorophenol Red] registered a pKa in series [1] of 6.11. Moreover, in series [2], the “ε at 445 nm (λ1), Acid” value came to 18136; the ε at 570 nm (λ2), Acid was 58 M⁻¹ cm⁻¹; the “ε at 445 nm (λ1), Base” value came out at 1985; the “ε at 570 nm (λ2), Base” value turned out to be 54247.
For `O=S1(=O)OC(c2cc(Br)c(O)c(Br)c2)(c2cc(Br)c(O)c(Br)c2)c2ccccc21` [Bromophenol Blue], in series [1], the pKa is given as 4.11. Further, in series [2], the “ε at 445 nm (λ1), Acid” value is 21711; the ε at 570 nm (λ2), Acid amounted to 378 M⁻¹ cm⁻¹; the “ε at 445 nm (λ1), Base” value was 1981; the “ε at 570 nm (λ2), Base” value is given as 46859.
